The record followed here is US20080207705A1, “Heteroaryl-Imidazole Derivatives as Cannabinoid CB1 Receptor Antagonists” (Green Cross Corporation, priority 2007, published 2008).

T1 sequence (P20272 whole entry): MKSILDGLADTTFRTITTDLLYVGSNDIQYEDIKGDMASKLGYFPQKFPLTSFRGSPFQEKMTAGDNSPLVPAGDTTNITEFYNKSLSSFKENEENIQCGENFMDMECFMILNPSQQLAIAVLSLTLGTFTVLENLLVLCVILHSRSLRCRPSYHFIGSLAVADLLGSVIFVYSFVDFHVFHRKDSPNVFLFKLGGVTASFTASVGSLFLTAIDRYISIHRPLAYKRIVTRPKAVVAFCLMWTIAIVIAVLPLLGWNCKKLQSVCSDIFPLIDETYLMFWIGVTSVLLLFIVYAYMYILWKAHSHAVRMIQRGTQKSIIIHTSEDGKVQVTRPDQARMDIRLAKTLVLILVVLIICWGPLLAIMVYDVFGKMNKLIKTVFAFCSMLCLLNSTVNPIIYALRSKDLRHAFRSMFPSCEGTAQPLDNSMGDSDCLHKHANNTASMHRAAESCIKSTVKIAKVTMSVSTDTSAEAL

One assay concerns the target T1, rat CB-1 receptor (Rattus norvegicus, UniProt P20272).
T1 construct: The tissue obtained from the brain of SD rats was homogenized; from tissue; host or cells: brain of SD rats (membrane pellet of homogenate)
Nature of the assay: rat CB-1 receptor binding protocol with [3H]CP-55940.
Settings: not given
For `CCc1c(-c2nnc(C3(C(F)(F)F)CCC3)o2)nc(-c2ccccc2Cl)n1-c1ccc(Br)cc1` [Example 57, 2-(1-(4-Bromophenyl)-2-(2-chlorophenyl)-5-ethyl-1H-imidazol-4-yl)-5-(1-(trifluoromethyl)cyclobutyl)-1,3,4-oxadiazole], the IC50 (in general, the concentration at which inhibition is half-maximal) worked out at 13.4 nM.

`Cc1c(-c2nnc(C(C)c3ccccc3)o2)nc(-c2ccc(Cl)cc2Cl)n1-c1ccc(Cl)cc1` (centres unmarked) [Example 11, 2-(1-(4-Chlorophenyl)-2-(2,4-dichlorophenyl)-5-methyl-1H-imidazol-4-yl)-5-(1-phenylethyl)-1,3,4-oxadiazole] registered an IC50 of 31.4 nM.

`CCc1c(-c2nnc(C3(C(F)(F)F)CCC3)o2)nc(-c2ccc(Cl)cc2Cl)n1-c1ccc(Br)cc1` [Example 50, 2-(1-(4-Bromophenyl)-2-(2,4-dichlorophenyl)-5-ethyl-1H-imidazol-4-yl)-5-(1-(trifluoromethyl)cyclobutyl)-1,3,4-oxadiazole] came in with a half-inhibitory concentration (IC50) of 9.56 nM.

`Cc1c(-c2nnc(C3(C(F)(F)F)CCC3)o2)nc(-c2ccccc2Cl)n1-c1ccc(Br)cc1` [Example 53, 2-(1-(4-Bromophenyl)-2-(2-chlorophenyl)-5-methyl-1H-imidazol-4-yl)-5-(1-(trifluoromethyl)cyclobutyl)-1,3,4-oxadiazole] had an IC50 of 11.4 nM.

As for `CCc1c(-c2nnc(C3(C(F)(F)F)CCC3)s2)nc(-c2ccccc2Cl)n1-c1ccc(Br)cc1` [Example 147, 2-(1-(4-Bromophenyl)-2-(2-chlorophenyl)-5-ethyl-1H-imidazol-4-yl)-5-(1-(trifluoromethyl)cyclobutyl)-1,3,4-thiadiazole], the IC50 is 5.33 nM.

Still in this assay, the particulars now being: [3H]CP-55940, brain tissue of SD rats, 30 °C for 60 min; read-out: IC50.
On to `CCc1c(-c2ncc(C(C)(C)C)o2)nc(-c2ccc(Cl)cc2Cl)n1-c1ccc(Br)cc1` [Example 188, 2-(1-(4-Bromophenyl)-2-(2,4-dichlorophenyl)-5-ethyl-1H-imidazol-4-yl)-5-tert-butyloxazole], for which the half-maximal inhibitory concentration (IC50) came to 8.98 nM.

For `CCc1cnc(-c2nc(-c3ccc(Cl)cc3Cl)n(-c3ccc(Cl)cc3)c2C)o1` [Example 181, 2-(1-(4-Chlorophenyl)-2-(2,4-dichlorophenyl)-5-methyl-1H-imidazol-4-yl)-5-ethyloxazole], the IC50 was 84 nM.

On to `CCC(CC)c1nnc(-c2nc(-c3ccc(Cl)cc3Cl)n(-c3ccc(Cl)cc3)c2C)s1` [Example 99, 2-(1-(4-Chlorophenyl)-2-(2,4-dichlorophenyl)-5-methyl-1H-imidazol-4-yl)-5-(pentan-3-yl)-1,3,4-thiadiazole], for which the IC50 came to 19.7 nM.

For the molecule `Cc1c(-c2nnc(C3(c4ccc(Cl)cc4)CC3)s2)nc(-c2ccccc2Cl)n1-c1ccc(Br)cc1` [Example 144, 2-(1-(4-Bromophenyl)-2-(2-chlorophenyl)-5-methyl-1H-imidazol-4-yl)-5-(1-(4-chlorophenyl)cyclopropyl)-1,3,4-thiadiazole], the 50% inhibitory concentration (IC50) is 2.18 nM.

In the case of `Cc1c(-c2nnc(C(C)C)s2)nc(-c2ccc(Cl)cc2Cl)n1-c1ccc(Cl)cc1` [Example 98, 2-(1-(4-Chlorophenyl)-2-(2,4-dichlorophenyl)-5-methyl-1H-imidazol-4-yl)-5-isopropyl-1,3,4-thiadiazole], the IC50 was 22.2 nM.

For the molecule `CCc1c(-c2nnc(C3CCC3)o2)nc(-c2ccc(Cl)cc2Cl)n1-c1ccc(Br)cc1` [Example 23, 2-(1-(4-Bromophenyl)-2-(2,4-dichlorophenyl)-5-ethyl-1H-imidazol-4-yl)-5-cyclobutyl-1,3,4-oxadiazole], the half-maximal inhibitory concentration (IC50) stood at 24.1 nM.

With `Cc1c(-c2nnc(C3(C(F)(F)F)CC3)o2)nc(-c2ccc(Cl)cc2Cl)n1-c1ccc(Br)cc1` [Example 46, 2-(1-(4-Bromophenyl)-2-(2,4-dichlorophenyl)-5-methyl-1H-imidazol-4-yl)-5-(1-(trifluoromethyl)cyclopropyl)-1,3,4-oxadiazole], the IC50 came to 15.6 nM.

Regarding `FC(F)(F)C1(c2nnc(-c3nc(-c4ccc(Cl)cc4Cl)n(-c4ccc(Br)cc4)c3Cn3cncn3)s2)CC1` [Example 165, 2-(5-((1H-1,2,4-Triazol-1-yl)methyl)-1-(4-bromophenyl)-2-(2,4-dichlorophenyl)-1H-imidazol-4-yl)-5-(1-(trifluoromethyl)cyclopropyl)-1,3,4-thiadiazole], the concentration for half-maximal inhibition (IC50) worked out at 5.59 nM.

In the case of `CC(C)c1c(-c2nnc(C3(c4ccccc4)CC3)o2)nc(-c2ccc(Cl)cc2Cl)n1-c1ccc(Br)cc1` [Example 26, 2-(1-(4-Bromophenyl)-2-(2,4-dichlorophenyl)-5-isopropyl-1H-imidazol-4-yl)-5-(1-phenylcyclopropyl)-1,3,4-oxadiazole], the IC50 was 10.3 nM.

For the molecule `CCc1sc(-c2nc(-c3ccc(Cl)cc3Cl)n(-c3ccc(Cl)cc3)c2C)nc1C` [Example 202, 2-(1-(4-Chlorophenyl)-2-(2,4-dichlorophenyl)-5-methyl-1H-imidazol-4-yl)-5-ethyl-4-methylthiazole], the concentration for half-maximal inhibition (IC50) stood at 90.2 nM.

With `Cc1c(-c2ncc(CC(C)C)s2)nc(-c2ccc(Cl)cc2Cl)n1-c1ccc(Cl)cc1` [Example 197, 2-(1-(4-Chlorophenyl)-2-(2,4-dichlorophenyl)-5-methyl-1H-imidazol-4-yl)-5-isobutylthiazole], the IC50 is 46.4 nM.

Turning to `CCC(C)c1nnc(-c2nc(-c3ccc(Cl)cc3Cl)n(-c3ccc(Cl)cc3)c2C)s1` (centres unmarked) [Example 97, 2-sec-Butyl-5-(1-(4-chlorophenyl)-2-(2,4-dichlorophenyl)-5-methyl-1H-imidazol-4-yl)-1,3,4-thiadiazole], the IC50 turned out to be 28.1 nM.

`CCCc1c(-c2nnc(C3CCCCC3)o2)nc(-c2ccc(Cl)cc2Cl)n1-c1ccc(Br)cc1` [Example 30, 2-(1-(4-Bromophenyl)-2-(2,4-dichlorophenyl)-5-propyl-1H-imidazol-4-yl)-5-cyclohexyl-1,3,4-oxadiazole]: the IC50 stood at 392 nM.

For `Cc1c(-c2nnc(C3CCCCC3)s2)nc(-c2ccc(Cl)cc2Cl)n1-c1ccc(Br)cc1` [Example 108, 2-(1-(4-Bromophenyl)-2-(2,4-dichlorophenyl)-5-methyl-1H-imidazol-4-yl)-5-cyclohexyl-1,3,4-thiadiazole], the IC50 was determined as 56.6 nM.

For `Cc1c(-c2nc(C(C)(C)C)co2)nc(-c2ccc(Cl)cc2Cl)n1-c1ccc(Cl)cc1` [Example 189, 4-tert-Butyl-2-(1-(4-chlorophenyl)-2-(2,4-dichlorophenyl)-5-methyl-1H-imidazol-4-yl)oxazole], the IC50 came out at 88.3 nM.

For `Cc1c(-c2ncc(C(C)(C)C)o2)nc(-c2ccc(Cl)cc2Cl)n1-c1ccc(Br)cc1` [Example 187, 2-(1-(4-Bromophenyl)-2-(2,4-dichlorophenyl)-5-methyl-1H-imidazol-4-yl)-5-tert-butyloxazole], the IC50 was 16.9 nM.

Consider `CCCc1c(-c2nnc(C(C)(C)C)o2)nc(-c2ccc(Cl)cc2Cl)n1-c1ccc(Cl)cc1` [Example 35, 2-tert-Butyl-5-(1-(4-chlorophenyl)-2-(2,4-dichlorophenyl)-5-propyl-1H-imidazol-4-yl)-1,3,4-oxadiazole], for which the IC50 came out at 18.9 nM.

For `CCCc1c(-c2nnc(C3(c4ccc(Cl)cc4)CCC3)s2)nc(-c2ccc(Cl)cc2Cl)n1-c1ccc(Cl)cc1` [Example 128, 2-(1-(4-Chlorophenyl)-2-(2,4-dichlorophenyl)-5-propyl-1H-imidazol-4-yl)-5-(1-(4-chlorophenyl)cyclobutyl)-1,3,4-thiadiazole], the half-maximal inhibitory concentration (IC50) worked out at 3.5 nM.

Turning to `Cc1c(-c2nnc(C3CCCCC3)o2)nc(-c2ccc(Cl)cc2Cl)n1-c1ccc(Cl)cc1` [Example 2, 2-(1-(4-Chlorophenyl)-2-(2,4-dichlorophenyl)-5-methyl-1H-imidazol-4-yl)-5-cyclohexyl-1,3,4-oxadiazole], the half-maximal inhibitory concentration (IC50) was 115 nM.

`Cc1c(-c2nnc(C3(c4ccc(Cl)cc4)CC3)s2)nc(-c2ccc(Cl)cc2Cl)n1-c1ccc(Br)cc1` [Example 138, 2-(1-(4-Bromophenyl)-2-(2,4-dichlorophenyl)-5-methyl-1H-imidazol-4-yl)-5-(1-(4-chlorophenyl)cyclopropyl)-1,3,4-thiadiazole]: the half-maximal inhibitory concentration (IC50) was determined as 18.5 nM.

Take `CCC(CC)c1nnc(-c2nc(-c3ccc(Cl)cc3Cl)n(-c3ccc(Cl)cc3)c2C)o1` [Example 10, 2-(1-(4-Chlorophenyl)-2-(2,4-dichlorophenyl)-5-methyl-1H-imidazol-4-yl)-5-(pentan-3-yl)-1,3,4-oxadiazole]: the IC50 is 22.3 nM.

As to `CCc1c(-c2nnc(C3(C(F)(F)F)CC3)o2)nc(-c2ccc(Cl)cc2Cl)n1-c1ccc(Br)cc1` [Example 49, 2-(1-(4-Bromophenyl)-2-(2,4-dichlorophenyl)-5-ethyl-1H-imidazol-4-yl)-5-(1-(trifluoromethyl)cyclopropyl)-1,3,4-oxadiazole], the half-maximal inhibitory concentration (IC50) stood at 16.7 nM.

With `CCCc1c(-c2nnc(C3(c4ccccc4)CC3)s2)nc(-c2ccc(Cl)cc2Cl)n1-c1ccc(Br)cc1` [Example 121, 2-(1-(4-Bromophenyl)-2-(2,4-dichlorophenyl)-5-propyl-1H-imidazol-4-yl)-5-(1-phenylcyclopropyl)-1,3,4-thiadiazole], the IC50 turned out to be 13.2 nM.

Turning to `CCc1c(-c2nnc(C3(C(F)(F)F)CC3)o2)nc(-c2ccccc2Cl)n1-c1ccc(Br)cc1` [Example 56, 2-(1-(4-Bromophenyl)-2-(2-chlorophenyl)-5-ethyl-1H-imidazol-4-yl)-5-(1-(trifluoromethyl)cyclopropyl)-1,3,4-oxadiazole], the IC50 came to 20.1 nM.

As to `CCCCC(C)c1nnc(-c2nc(-c3ccc(Cl)cc3Cl)n(-c3ccc(Cl)cc3)c2CC)o1` (centres unmarked) [Example 16, 2-(1-(4-Chlorophenyl)-2-(2,4-dichlorophenyl)-5-ethyl-1H-imidazol-4-yl)-5-(hexan-2-yl)-1,3,4-oxadiazole], the IC50 came out at 11.2 nM.

On to `Cc1c(-c2nnc(C(C)c3ccccc3)s2)nc(-c2ccc(Cl)cc2Cl)n1-c1ccc(Cl)cc1` (centres unmarked) [Example 100, 2-(1-(4-Chlorophenyl)-2-(2,4-dichlorophenyl)-5-methyl-1H-imidazol-4-yl)-5-(1-phenylethyl)-1,3,4-thiadiazole], for which the half-inhibitory concentration (IC50) stood at 16.9 nM.

As for `FC(F)(F)C1(c2nnc(-c3nc(-c4ccccc4Cl)n(-c4ccc(Br)cc4)c3Cn3cncn3)s2)CC1` [Example 169, 2-(5-((1H-1,2,4-Triazol-1-yl)methyl)-1-(4-bromophenyl)-2-(2-chlorophenyl)-1H-imidazol-4-yl)-5-(1-(trifluoromethyl)cyclopropyl)-1,3,4-thiadiazole], the concentration for half-maximal inhibition (IC50) is 4.73 nM.
